Experimental data published in the NIST ThermoML archive (doi:10.1021/je8003035).
± gives the expanded uncertainty stated by the source.

Tests used:
[1] = molar heat capacity at constant pressure; wn = mass fraction of the nth substance listed; conditions: 1800 kPa, Liquid, Small sample (50 mg) DSC
[2] = xn = mol fraction of the nth substance listed; conditions: 1800 kPa, Liquid, Vibrating tube method
[3] = wn = mass fraction of the nth substance listed; conditions: 1800 kPa, Liquid, Falling or rolling sphere viscometry

O=[N+]([O-])[O-].[Li+] [lithium nitrate] + N
Conditions	mass density [kg/m3]	molar heat capacity at constant pressure [J/K/mol]	viscosity [mPa·s]
[1], 312.65 K, w2 = 0.5	–	85.88 ± 1.3	–
[1], 312.67 K, w2 = 0.3501	–	84.48 ± 1.3	–
[1], 312.67 K, w2 = 0.4003	–	84.65 ± 1.3	–
[1], 312.67 K, w2 = 0.4499	–	85.21 ± 1.3	–
[1], 312.67 K, w2 = 0.5497	–	84.75 ± 1.3	–
[1], 322.56 K, w2 = 0.5	–	86.67 ± 1.3	–
[1], 322.57 K, w2 = 0.3501	–	85.61 ± 1.3	–
[1], 322.58 K, w2 = 0.4003	–	85.8 ± 1.3	–
[1], 322.58 K, w2 = 0.4499	–	86.2 ± 1.3	–
[1], 322.58 K, w2 = 0.5497	–	85.55 ± 1.3	–
[1], 332.46 K, w2 = 0.5	–	87.54 ± 1.4	–
[1], 332.48 K, w2 = 0.3501	–	86.65 ± 1.3	–
[1], 332.48 K, w2 = 0.4499	–	87.22 ± 1.3	–
[1], 332.48 K, w2 = 0.5497	–	86.09 ± 1.3	–
[1], 332.49 K, w2 = 0.4003	–	86.7 ± 1.3	–
[1], 342.37 K, w2 = 0.5	–	88.33 ± 1.4	–
[1], 342.38 K, w2 = 0.3501	–	87.52 ± 1.4	–
[1], 342.38 K, w2 = 0.5497	–	86.97 ± 1.3	–
[1], 342.39 K, w2 = 0.4003	–	87.51 ± 1.4	–
[1], 342.39 K, w2 = 0.4499	–	88.09 ± 1.4	–
[1], 352.29 K, w2 = 0.3501	–	88.22 ± 1.4	–
[1], 352.29 K, w2 = 0.4003	–	88.07 ± 1.4	–
[1], 352.31 K, w2 = 0.4499	–	88.59 ± 1.4	–
[2], 293.15 K, x2 = 0.3501	1188.8 ± 0.8	–	–
[2], 293.15 K, x2 = 0.3988	1134.2 ± 0.8	–	–
[2], 293.15 K, x2 = 0.4499	1078.1 ± 0.8	–	–
[2], 293.15 K, x2 = 0.5	1030 ± 0.8	–	–
[2], 293.15 K, x2 = 0.55	983.8 ± 0.7	–	–
[2], 293.15 K, x2 = 0.5999	939 ± 0.7	–	–
[2], 293.15 K, x2 = 0.6505	896.8 ± 0.7	–	–
[2], 303.15 K, x2 = 0.3501	1181.2 ± 0.8	–	–
[2], 303.15 K, x2 = 0.3988	1126.6 ± 0.8	–	–
[2], 303.15 K, x2 = 0.4499	1070.3 ± 0.8	–	–
[2], 303.15 K, x2 = 0.5	1022.1 ± 0.8	–	–
[2], 303.15 K, x2 = 0.55	975.4 ± 0.7	–	–
[2], 303.15 K, x2 = 0.5999	929.8 ± 0.7	–	–
[2], 303.15 K, x2 = 0.6505	886.9 ± 0.7	–	–
[2], 313.15 K, x2 = 0.3501	1173.8 ± 0.8	–	–
[2], 313.15 K, x2 = 0.3988	1119 ± 0.8	–	–
[2], 313.15 K, x2 = 0.4499	1062.6 ± 0.8	–	–
[2], 313.15 K, x2 = 0.5	1014.1 ± 0.8	–	–
[2], 313.15 K, x2 = 0.55	966.8 ± 0.7	–	–
[2], 313.15 K, x2 = 0.5999	920.6 ± 0.7	–	–
[2], 313.15 K, x2 = 0.6505	876.7 ± 0.7	–	–
[2], 323.15 K, x2 = 0.3501	1166.6 ± 0.8	–	–
[2], 323.15 K, x2 = 0.3988	1111.5 ± 0.8	–	–
[2], 323.15 K, x2 = 0.4499	1055.1 ± 0.8	–	–
[2], 323.15 K, x2 = 0.5	1006.1 ± 0.8	–	–
[2], 323.15 K, x2 = 0.55	958.1 ± 0.7	–	–
[2], 323.15 K, x2 = 0.5999	911.2 ± 0.7	–	–
[2], 323.15 K, x2 = 0.6505	866.6 ± 0.7	–	–
[2], 333.15 K, x2 = 0.3501	1159.7 ± 0.8	–	–
[2], 333.15 K, x2 = 0.3988	1104.1 ± 0.8	–	–
[2], 333.15 K, x2 = 0.4499	1047.5 ± 0.8	–	–
[2], 333.15 K, x2 = 0.5	998 ± 0.8	–	–
[2], 333.15 K, x2 = 0.55	949.4 ± 0.7	–	–
[2], 333.15 K, x2 = 0.5999	901.6 ± 0.7	–	–
[2], 343.15 K, x2 = 0.3501	1153.1 ± 0.8	–	–
[2], 343.15 K, x2 = 0.3988	1096.9 ± 0.8	–	–
[2], 343.15 K, x2 = 0.4499	1040 ± 0.8	–	–
[2], 343.15 K, x2 = 0.5	990.1 ± 0.8	–	–
[2], 343.15 K, x2 = 0.55	940.4 ± 0.8	–	–
[2], 353.15 K, x2 = 0.3501	1146.9 ± 0.8	–	–
[2], 353.15 K, x2 = 0.3988	1090.2 ± 0.8	–	–
[2], 353.15 K, x2 = 0.4499	1032.8 ± 0.8	–	–
[2], 353.15 K, x2 = 0.5	982.1 ± 0.8	–	–
[3], 293.2 K, w2 = 0.4	–	–	22.7 ± 0.5
[3], 293.2 K, w2 = 0.4997	–	–	7.1 ± 0.4
[3], 298.2 K, w2 = 0.4	–	–	18.7 ± 0.5
[3], 298.2 K, w2 = 0.4997	–	–	6.1 ± 0.4
[3], 303.2 K, w2 = 0.4	–	–	15.5 ± 0.4
[3], 303.2 K, w2 = 0.4997	–	–	5.3 ± 0.4
[3], 308.2 K, w2 = 0.4	–	–	13 ± 0.4
[3], 308.2 K, w2 = 0.4997	–	–	4.7 ± 0.4
[3], 313.2 K, w2 = 0.4	–	–	11 ± 0.4
[3], 313.2 K, w2 = 0.4997	–	–	4.1 ± 0.4
[3], 318.2 K, w2 = 0.4	–	–	9.3 ± 0.4
[3], 318.2 K, w2 = 0.4997	–	–	3.6 ± 0.4
[3], 323.2 K, w2 = 0.3	–	–	18.6 ± 0.4
[3], 323.2 K, w2 = 0.4	–	–	8 ± 0.4
[3], 323.2 K, w2 = 0.4997	–	–	3.3 ± 0.4
[3], 328.1 K, w2 = 0.4997	–	–	2.9 ± 0.4
[3], 328.2 K, w2 = 0.3	–	–	15.9 ± 0.4
[3], 328.2 K, w2 = 0.4	–	–	6.9 ± 0.4
[3], 333.1 K, w2 = 0.4997	–	–	2.6 ± 0.4
[3], 333.2 K, w2 = 0.3	–	–	13.8 ± 0.4
[3], 333.2 K, w2 = 0.4	–	–	6.1 ± 0.4
[3], 338 K, w2 = 0.4997	–	–	2.4 ± 0.4
[3], 338.1 K, w2 = 0.3	–	–	11.9 ± 0.4
[3], 338.1 K, w2 = 0.4	–	–	5.4 ± 0.4
[3], 343 K, w2 = 0.4997	–	–	2.2 ± 0.4
[3], 343.1 K, w2 = 0.3	–	–	10.9 ± 0.4
[3], 343.1 K, w2 = 0.4	–	–	4.8 ± 0.4
[3], 348.1 K, w2 = 0.3	–	–	9 ± 0.4
[3], 348.2 K, w2 = 0.4	–	–	4.3 ± 0.4
[3], 353.1 K, w2 = 0.4	–	–	3.8 ± 0.4
[3], 353.2 K, w2 = 0.3	–	–	7.9 ± 0.4
